Measurements from patent EP1285920A1, “C10 Ester sustituted taxanes as antitumor agents” (Florida State University Research Foundation, Inc., priority 2001, dated 2003).

system: A2780 ovarian carcinoma; assay: not given; details: number of mice; i.v. qd x 1 at estimated MTD (Taxol 24 mg/kg, Taxotere 70 mg/kg, 0983 72.6 mg/kg); 5 mice/group (Taxotere 6); Day 60
Description: Dosing was initiated on Day 1. […] Taxotere was given i.v. on a qd x 1 schedule at a dose of 70 mg/kg. […] The study was terminated on Day 60. Treatment groups are detailed in Table 7.

Row | Structure (SMILES) | Survivors
1 | CCC(=O)OC1C(=O)C2(C)C(O)CC3OCC3(OC(C)=O)C2C(OC(=O)c2ccccc2)C2(O)CC(OC(=O)C(O)C(NC(=O)c3ccccc3)c3cccs3)C(C)=C1C2(C)C (stereo not shown) [Compound 0687] | 0

system: HCT116 carcinoma; assay: not given; details: number of 5 mice; i.v. qd x 1 at MTD, Day 60; doses as in E3
Description: Antitumor compounds were formulated for an i.v. dosing regime and were prepared in the following vehicle: 5% ethanol, 5% Cremophor and 90% isotonic saline.
(§1) The antitumor compounds were given intravenously in a single maximum tolerated dose (MTD) appropriate for each compound. […] The MTDs for the antitumor compounds were calculated from earlier single dose data for mice receiving i.v. administration of these compounds. All vehicle control animals in the split dosing regimes were dosed twice intravenously with half of the total volume being given separated by one hour. The study was terminated on Day 60.
A complete response is obtained if the tumor is not palpable at the end of the study.

Row | Structure (SMILES) | Survivors
2 | CCC(=O)OC1C(=O)C2(C)C(O)CC3OCC3(OC(C)=O)C2C(OC(=O)c2ccccc2)C2(O)CC(OC(=O)C(O)C(NC(=O)c3ccccc3)c3cccs3)C(C)=C1C2(C)C (stereo not shown) [Compound 0687] | 5

system: HCT116; assay: In Vitro cytotoxicity measured by the cell colony formation assay; format: cell-based, human; details: Homo sapiens, HCT-116; read-out: IN VITRO ID 50 HCT116
In short: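 Four hundred cells per dish in McCoy's 5a medium with 10% FBS were allowed to attach for 5 h at 37 °C. They were then exposed to compound for 72 h at 37 °C, added as a 10× stock made fresh in medium. After HBSS rinsing and refeeding, colonies were counted after 7 days.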

Row | Structure (SMILES) | IC50
3 | C/C=C/C(=O)N[C@@H](c1ccco1)[C@@H](O)C(=O)O[C@H]1C[C@@]2(O)[C@@H](OC(=O)c3ccccc3)[C@@H]3[C@]4(OC(C)=O)CO[C@@H]4C[C@H](O)[C@@]3(C)C(=O)[C@H](OC(=O)C3CC3)C(=C1C)C2(C)C [Compound 3971] | < 1 nM
4 | C/C=C/C(=O)N[C@@H](c1ccco1)[C@@H](O)C(=O)O[C@H]1C[C@@]2(O)[C@@H](OC(=O)c3ccccc3)[C@@H]3[C@]4(OC(C)=O)CO[C@@H]4C[C@H](O)[C@@]3(C)C(=O)[C@H](OC(=O)CC)C(=C1C)C2(C)C [Compound 3982] | < 1 nM
5 | CCOC(=O)N[C@@H](c1cccs1)[C@@H](O)C(=O)O[C@H]1C[C@@]2(O)[C@@H](OC(=O)c3ccccc3)[C@@H]3[C@]4(OC(C)=O)CO[C@@H]4C[C@H](O)[C@@]3(C)C(=O)[C@H](OC(=O)C3CC3)C(=C1C)C2(C)C [Compound 4051] | < 1 nM
6 | CCCC(=O)N[C@@H](c1ccco1)[C@@H](O)C(=O)O[C@H]1C[C@@]2(O)[C@@H](OC(=O)c3ccccc3)[C@@H]3[C@]4(OC(C)=O)CO[C@@H]4C[C@H](O)[C@@]3(C)C(=O)[C@H](OC(=O)C3CC3)C(=C1C)C2(C)C [Compound 4062] | < 1 nM
7 | CC(=O)O[C@@]12CO[C@@H]1C[C@H](O)[C@@]1(C)C(=O)[C@H](OC(=O)C3CC3)C3=C(C)[C@@H](OC(=O)[C@H](O)[C@@H](NC(=O)c4cccnc4)c4cccs4)C[C@@](O)([C@@H](OC(=O)c4ccccc4)[C@H]21)C3(C)C [Compound 4112] | < 10 nM
8 | CCC(=O)O[C@H]1C(=O)[C@@]2(C)[C@H]([C@H](OC(=O)c3ccccc3)[C@]3(O)C[C@H](OC(=O)[C@H](O)[C@@H](NC(=O)c4cccnc4)c4cccs4)C(C)=C1C3(C)C)[C@]1(OC(C)=O)CO[C@@H]1C[C@@H]2O [Compound 4121] | < 10 nM
9 | CCCC(=O)O[C@H]1C(=O)[C@@]2(C)[C@H]([C@H](OC(=O)c3ccccc3)[C@]3(O)C[C@H](OC(=O)[C@H](O)[C@@H](NC(=O)c4cccnc4)c4cccs4)C(C)=C1C3(C)C)[C@]1(OC(C)=O)CO[C@@H]1C[C@@H]2O [Compound 4190] | < 10 nM
10 | CCC(=O)O[C@H]1C(=O)[C@@]2(C)[C@H]([C@H](OC(=O)c3ccccc3)[C@]3(O)C[C@H](OC(=O)[C@H](O)[C@@H](NC(=O)c4ccncc4)c4cccs4)C(C)=C1C3(C)C)[C@]1(OC(C)=O)CO[C@@H]1C[C@@H]2O [Compound 4207] | < 10 nM
11 | CC(=O)O[C@@]12CO[C@@H]1C[C@H](O)[C@@]1(C)C(=O)[C@H](OC(=O)C3CC3)C3=C(C)[C@@H](OC(=O)[C@H](O)[C@@H](NC(=O)C=C(C)C)c4cccs4)C[C@@](O)([C@@H](OC(=O)c4ccccc4)[C@H]21)C3(C)C [Compound 4329] | < 1 nM
12 | CCC(=O)O[C@H]1C(=O)[C@@]2(C)[C@H]([C@H](OC(=O)c3ccccc3)[C@]3(O)C[C@H](OC(=O)[C@H](O)[C@@H](NC(=O)C=C(C)C)c4cccs4)C(C)=C1C3(C)C)[C@]1(OC(C)=O)CO[C@@H]1C[C@@H]2O [Compound 4335] | < 1 nM
13 | CCCC(=O)O[C@H]1C(=O)[C@@]2(C)[C@H]([C@H](OC(=O)c3ccccc3)[C@]3(O)C[C@H](OC(=O)[C@H](O)[C@@H](NC(=O)C=C(C)C)c4cccs4)C(C)=C1C3(C)C)[C@]1(OC(C)=O)CO[C@@H]1C[C@@H]2O [Compound 4344] | < 1 nM
14 | CC(=O)O[C@@]12CO[C@@H]1C[C@H](O)[C@@]1(C)C(=O)[C@H](OC(=O)C3CC3)C3=C(C)[C@@H](OC(=O)[C@H](O)[C@@H](NC(=O)OCC(C)C)c4ccoc4)C[C@@](O)([C@@H](OC(=O)c4ccccc4)[C@H]21)C3(C)C [Compound 4665] | < 10 nM
15 | CCCC(=O)O[C@H]1C(=O)[C@@]2(C)[C@H]([C@H](OC(=O)c3ccccc3)[C@]3(O)C[C@H](OC(=O)[C@H](O)[C@@H](NC(=O)OCC(C)C)c4ccoc4)C(C)=C1C3(C)C)[C@]1(OC(C)=O)CO[C@@H]1C[C@@H]2O [Compound 4704] | < 10 nM
16 | CCC(=O)O[C@H]1C(=O)[C@@]2(C)[C@H]([C@H](OC(=O)c3ccccc3)[C@]3(O)C[C@H](OC(=O)[C@H](O)[C@@H](NC(=O)OCC(C)C)c4ccsc4)C(C)=C1C3(C)C)[C@]1(OC(C)=O)CO[C@@H]1C[C@@H]2O [Compound 4711] | < 10 nM
17 | CC(=O)O[C@@]12CO[C@@H]1C[C@H](O)[C@@]1(C)C(=O)[C@H](OC(=O)C3CC3)C3=C(C)[C@@H](OC(=O)[C@H](O)[C@H](C=C(C)C)NC(=O)OCC(C)C)C[C@@](O)([C@@H](OC(=O)c4ccccc4)[C@H]21)C3(C)C [Compound 4720] | < 10 nM
18 | CCC(=O)O[C@H]1C(=O)[C@@]2(C)[C@H]([C@H](OC(=O)c3ccccc3)[C@]3(O)C[C@H](OC(=O)[C@H](O)[C@@H](NC(=O)OCC(C)C)C4CC4)C(C)=C1C3(C)C)[C@]1(OC(C)=O)CO[C@@H]1C[C@@H]2O [Compound 4799] | < 1 nM
19 | CCCC(=O)O[C@H]1C(=O)[C@@]2(C)[C@H]([C@H](OC(=O)c3ccccc3)[C@]3(O)C[C@H](OC(=O)[C@H](O)[C@@H](NC(=O)OCC(C)C)C4CC4)C(C)=C1C3(C)C)[C@]1(OC(C)=O)CO[C@@H]1C[C@@H]2O [Compound 4808] | < 10 nM
20 | CCCC(=O)O[C@H]1C(=O)[C@@]2(C)[C@H]([C@H](OC(=O)c3ccccc3)[C@]3(O)C[C@H](OC(=O)[C@H](O)[C@@H](NC(=O)OCC(C)C)c4ccsc4)C(C)=C1C3(C)C)[C@]1(OC(C)=O)CO[C@@H]1C[C@@H]2O [Compound 4834] | < 10 nM
21 | C/C=C/C(=O)N[C@@H](c1ccoc1)[C@@H](O)C(=O)O[C@H]1C[C@@]2(O)[C@@H](OC(=O)c3ccccc3)[C@@H]3[C@]4(OC(C)=O)CO[C@@H]4C[C@H](O)[C@@]3(C)C(=O)[C@H](OC(=O)CC)C(=C1C)C2(C)C [Compound 4888] | < 1 nM
22 | C/C=C/C(=O)N[C@@H](c1ccoc1)[C@@H](O)C(=O)O[C@H]1C[C@@]2(O)[C@@H](OC(=O)c3ccccc3)[C@@H]3[C@]4(OC(C)=O)CO[C@@H]4C[C@H](O)[C@@]3(C)C(=O)[C@H](OC(=O)CCC)C(=C1C)C2(C)C [Compound 4919] | < 1 nM
23 | CC=CC(=O)NC(c1ccoc1)C(O)C(=O)OC1CC2(O)C(OC(=O)c3ccccc3)C3C4(OC(C)=O)COC4CC(O)C3(C)C(=O)C(OC(=O)C3CC3)C(=C1C)C2(C)C (stereo not shown) [Compound 4944] | < 1 nM
24 | CC(=O)OC12COC1CC(O)C1(C)C(=O)C(OC(=O)C3CC3)C3=C(C)C(OC(=O)C(O)C(NC(=O)OCC(C)C)c4ccsc4)CC(O)(C(OC(=O)c4ccccc4)C21)C3(C)C (stereo not shown) [Compound 5011] | < 10 nM
25 | CC=CC(=O)NC(c1ccsc1)C(O)C(=O)OC1CC2(O)C(OC(=O)c3ccccc3)C3C4(OC(C)=O)COC4CC(O)C3(C)C(=O)C(OC(=O)C3CC3)C(=C1C)C2(C)C (stereo not shown) [Compound 5040] | < 1 nM
26 | CCC(=O)OC1C(=O)C2(C)C(O)CC3OCC3(OC(C)=O)C2C(OC(=O)c2ccccc2)C2(O)CC(OC(=O)C(O)C(C=C(C)C)NC(=O)OCC(C)C)C(C)=C1C2(C)C (stereo not shown) [Compound 5065] | < 10 nM
27 | CCCC(=O)OC1C(=O)C2(C)C(O)CC3OCC3(OC(C)=O)C2C(OC(=O)c2ccccc2)C2(O)CC(OC(=O)C(O)C(C=C(C)C)NC(=O)OCC(C)C)C(C)=C1C2(C)C (stereo not shown) [Compound 5144] | < 10 nM
28 | CC(=O)OC12COC1CC(O)C1(C)C(=O)C(OC(=O)C3CC3)C3=C(C)C(OC(=O)C(O)C(NC(=O)OCC(C)C)C4CC4)CC(O)(C(OC(=O)c4ccccc4)C21)C3(C)C (stereo not shown) [Compound 5232] | < 10 nM
29 | CCC(=O)OC1C(=O)C2(C)C(O)CC3OCC3(OC(C)=O)C2C(OC(=O)c2ccccc2)C2(O)CC(OC(=O)C(O)C(NC(=O)OC(C)(C)C)c3ccoc3)C(C)=C1C2(C)C (stereo not shown) [Compound 5495] | < 1 nM
30 | CCC(=O)OC1C(=O)C2(C)C(O)CC3OCC3(OC(C)=O)C2C(OC(=O)c2ccccc2)C2(O)CC(OC(=O)C(O)C(NC(=O)OC(C)(C)CC)c3ccco3)C(C)=C1C2(C)C (stereo not shown) [Compound 6522] | < 1 nM

system: MX-1 carcinoma; assay: not given; details: number of 6 mice; i.v. qd x 1 at MTD, Day 60; doses as in E17
Description: Thirteen antitumor compounds were formulated for an i.v. dosing regime (single i.v. bolus, qd x 1 schedule) prepared in the following vehicle: 5% ethanol, 5% Cremophor and 90% isotonic saline.
as §1, with “half” for “half of”
A complete response is obtained if the tumor is not palpable at the end of the study. […]

Row | Structure (SMILES) | Survivors
31 | CCC(=O)OC1C(=O)C2(C)C(O)CC3OCC3(OC(C)=O)C2C(OC(=O)c2ccccc2)C2(O)CC(OC(=O)C(O)C(NC(=O)c3ccccc3)c3cccs3)C(C)=C1C2(C)C (stereo not shown) [Compound 0687] | 5
